{
  "source": "patent US20030100515A1",
  "about": "“Benzophenone glycopyranosides, preparation and therapeutic use” (priority 1999, published 2003)",
  "system": "female mice of the C57BL/6J strain",
  "experiment": "Lowering of serum cholesterol level in mice subjected to a fatty diet (single oral dose)",
  "assay_type": "in vivo",
  "conditions": "total serum cholesterol, female C57BL/6J mice on fatty diet (1.25% cholesterol, 0.5% cholic acid)",
  "protocol": "The antiatheromatous activity of the compounds according to the invention was evaluated as a function of their ability to lower the serum cholesterol level in mice subjected to a fatty diet. […] This correlation affords a test which is more rapid than direct experiments on the atheromatous plaque, which require a lengthy treatment of the animals and an expensive histological study of the walls of the aortic arch.\nThe test used consists in administering a single dose of the compound to female mice of the C57BL/6J strain. The protocol is as follows: On the first day (D0), the mice are fasted from 9 am to 5 pm, a blood sample being taken at 2 pm. At 5 pm, a given amount of food (a fatty diet comprising 1.25% of cholesterol and 0.5% of cholic acid) is distributed. On the second day (D1), the food leftovers are weighed at 9 am and the mice are fasted from 9 am to 2 pm. A blood sample is taken at 2 pm. For the treated groups of mice, the compound is administered at 9 am on the second day (D1) by tubage in the form of a suspension in a 3% aqueous solution of gum. The control groups receive only the aqueous gum.\n[…] The total serum cholesterol is assayed and the results are expressed as the percentage inhibition of the increase in cholesterolemia compared with the control group.",
  "key": {"[1]": {"conditions": "single dose 100 mg/kg by tubage"}},
  "note": "Marks after values point to notes of the source that are not given here.",
  "data": [
    {"smiles": "CC(=O)O[C@@H]1[C@@H](Oc2ccc(C(=O)c3ccc(C#N)cc3)cc2)OC[C@H](OC(C)=O)[C@H]1OC(C)=O", "note": "[Example 12, [4-(4-Cyanobenzoyl)phenyl] 2,3,4-tri-O-acetyl-β-L-xylopyranoside]", "values": [
      {"measurement": "Activity (%): percentage inhibition of the increase in cholesterolemia compared with the control group", "setting": "[1]", "value": "−45", "unit": "%"}
    ]},
    {"smiles": "N#Cc1ccc(C(=O)c2ccc(O[C@@H]3OC[C@H](O)[C@@H](O)[C@@H]3O)cc2)cc1", "note": "[Example 15, [4-(4-Cyanobenzoyl)phenyl] α-L-xylopyranoside]", "values": [
      {"measurement": "Activity (%): percentage inhibition of the increase in cholesterolemia compared with the control group", "setting": "[1]", "value": "−32", "unit": "%"}
    ]},
    {"smiles": "CC(=O)O[C@@H]1[C@@H](OC(C)=O)[C@H](Oc2ccc(C(=O)c3ccc(C#N)cc3)cc2)OC[C@@H]1OC(C)=O", "note": "[Example 18, [4-(4-Cyanobenzoyl)phenyl] 2,3,4-tri-O-acetyl-α-L-arabinopyranoside]", "values": [
      {"measurement": "Activity (%): percentage inhibition of the increase in cholesterolemia compared with the control group", "setting": "single dose 10 mg/kg by tubage", "value": "−2* %"}
    ]},
    {"smiles": "N#Cc1ccc(C(=O)c2ccc(O[C@@H]3O[C@H](CO)[C@@H](O)[C@H](O)[C@@H]3O)cc2)cc1", "note": "[Example 9, [4-(4-Cyanobenzoyl)phenyl] β-D-mannopyranoside]", "values": [
      {"measurement": "Activity (%): percentage inhibition of the increase in cholesterolemia compared with the control group", "setting": "[1]", "value": "−39", "unit": "%"}
    ]},
    {"smiles": "CC(=O)OC[C@H]1O[C@@H](Oc2ccc(C(=O)c3ccc(C#N)cc3)cc2)[C@H](OC(C)=O)[C@@H](OC(C)=O)[C@H]1OC(C)=O", "note": "[Example 6, [4-(4-Cyanobenzoyl)phenyl] 2,3,4,6-tetra-O-acetyl-β-D-galactopyranoside]", "values": [
      {"measurement": "Activity (%): percentage inhibition of the increase in cholesterolemia compared with the control group", "setting": "[1]", "value": "−33", "unit": "%"}
    ]},
    {"smiles": "CC(=O)O[C@@H]1[C@@H](OC(C)=O)[C@@H](Oc2ccc(C(=O)c3ccc(C#N)cc3)cc2)OC[C@@H]1OC(C)=O", "note": "[Example 10, [4-(4-Cyanobenzoyl)phenyl] 2,3,4-tri-O-acetyl-β-L-arabinopyranoside]", "values": [
      {"measurement": "Activity (%): percentage inhibition of the increase in cholesterolemia compared with the control group", "setting": "[1]", "value": "−22", "unit": "%"}
    ]},
    {"smiles": "N#Cc1ccc(C(=O)c2ccc(O[C@@H]3OC[C@@H](O)[C@@H](O)[C@@H]3O)cc2)cc1", "note": "[Example 2, [4-(4-Cyanobenzoyl)phenyl] β-D-arabinopyranoside]", "values": [
      {"measurement": "Activity (%): percentage inhibition of the increase in cholesterolemia compared with the control group", "setting": "[1]", "value": "−29", "unit": "%"}
    ]},
    {"smiles": "CC(=O)OC[C@H]1O[C@@H](Oc2ccc(C(=O)c3ccc(C#N)cc3)cc2)[C@@H](OC(C)=O)[C@@H](OC(C)=O)[C@@H]1OC(C)=O", "note": "[Example 8, [4-(4-Cyanobenzoyl)phenyl] 2,3,4,6-tetra-O-acetyl-β-D-mannopyranoside]", "values": [
      {"measurement": "Activity (%): percentage inhibition of the increase in cholesterolemia compared with the control group", "setting": "[1]", "value": "−17", "unit": "%"}
    ]},
    {"smiles": "CC(=O)O[C@@H]1[C@H](Oc2ccc(C(=O)c3ccc(C#N)cc3)cc2)OC[C@@H](OC(C)=O)[C@H]1OC(C)=O", "note": "[Example 1, [4-(4-Cyanobenzoyl)phenyl] 2,3,4-tri-O-acetyl-β-D-arabinopyranoside]", "values": [
      {"measurement": "Activity (%): percentage inhibition of the increase in cholesterolemia compared with the control group", "setting": "[1]", "value": "−25", "unit": "%"}
    ]},
    {"smiles": "N#Cc1ccc(C(=O)c2ccc(O[C@@H]3OC[C@@H](O)[C@H](O)[C@@H]3O)cc2)cc1", "note": "[Example 3, [4-(4-Cyanobenzoyl)phenyl] β-D-lyxopyranoside]", "values": [
      {"measurement": "Activity (%): percentage inhibition of the increase in cholesterolemia compared with the control group", "setting": "[1]", "value": "−28", "unit": "%"}
    ]},
    {"smiles": "N#Cc1ccc(C(=O)c2ccc(O[C@H]3OC[C@H](O)[C@H](O)[C@H]3O)cc2)cc1", "note": "[Example 11, [4-(4-Cyanobenzoyl)phenyl] β-L-arabinopyranoside]", "values": [
      {"measurement": "Activity (%): percentage inhibition of the increase in cholesterolemia compared with the control group", "setting": "[1]", "value": "−31", "unit": "%"}
    ]},
    {"smiles": "CC(=O)O[C@@H]1[C@@H](OC(C)=O)[C@H](C)O[C@H](Oc2ccc(C(=O)c3ccc(C#N)cc3)cc2)[C@@H]1OC(C)=O", "note": "[Example 16, [4-(4-Cyanobenzoyl)phenyl] 2,3,4-tri-O-acetyl-β-L-rhamnopyranoside]", "values": [
      {"measurement": "Activity (%): percentage inhibition of the increase in cholesterolemia compared with the control group", "setting": "[1]", "value": "−37", "unit": "%"}
    ]},
    {"smiles": "CC(=O)O[C@H]1[C@H](Oc2ccc(C(=O)c3ccc(C#N)cc3)cc2)OC[C@@H](OC(C)=O)[C@H]1OC(C)=O", "note": "[Example 4, [4-(4-Cyanobenzoyl)phenyl] 2,3,4-tri-O-acetyl-β-D-ribopyranoside]", "values": [
      {"measurement": "Activity (%): percentage inhibition of the increase in cholesterolemia compared with the control group", "setting": "[1]", "value": "−23", "unit": "%"}
    ]},
    {"smiles": "C[C@@H]1O[C@H](Oc2ccc(C(=O)c3ccc(C#N)cc3)cc2)[C@H](O)[C@H](O)[C@H]1O", "note": "[Example 17, [4-(4-Cyanobenzoyl)phenyl] β-L-rhamnopyranoside]", "values": [
      {"measurement": "Activity (%): percentage inhibition of the increase in cholesterolemia compared with the control group", "setting": "[1]", "value": "−50", "unit": "%"}
    ]},
    {"smiles": "N#Cc1ccc(C(=O)c2ccc(O[C@@H]3O[C@H](CO)[C@H](O)[C@H](O)[C@H]3O)cc2)cc1", "note": "[Example 7, [4-(4-Cyanobenzoyl)phenyl] β-D-galactopyranoside]", "values": [
      {"measurement": "Activity (%): percentage inhibition of the increase in cholesterolemia compared with the control group", "setting": "[1]", "value": "−32", "unit": "%"}
    ]},
    {"smiles": "N#Cc1ccc(C(=O)c2ccc(O[C@H]3OC[C@H](O)[C@@H](O)[C@@H]3O)cc2)cc1", "note": "[Example 13, [4-(4-Cyanobenzoyl)phenyl] β-L-xylopyranoside]", "values": [
      {"measurement": "Activity (%): percentage inhibition of the increase in cholesterolemia compared with the control group", "setting": "[1]", "value": "−45", "unit": "%"}
    ]},
    {"smiles": "N#Cc1ccc(C(=O)c2ccc(O[C@@H]3OC[C@@H](O)[C@@H](O)[C@H]3O)cc2)cc1", "note": "[Example 5, [4-(4-Cyanobenzoyl)phenyl] β-D-ribopyranoside]", "values": [
      {"measurement": "Activity (%): percentage inhibition of the increase in cholesterolemia compared with the control group", "setting": "[1]", "value": "−36", "unit": "%"}
    ]},
    {"smiles": "N#Cc1ccc(C(=O)c2ccc(O[C@@H]3OC[C@H](O)[C@H](O)[C@H]3O)cc2)cc1", "note": "[Example 19, [4-(4-Cyanobenzoyl)phenyl] α-L-arabinopyranoside]", "values": [
      {"measurement": "Activity (%): percentage inhibition of the increase in cholesterolemia compared with the control group", "setting": "single dose 10 mg/kg by tubage", "value": "−31* %"}
    ]},
    {"smiles": "CC(=O)O[C@@H]1[C@H](Oc2ccc(C(=O)c3ccc(C#N)cc3)cc2)OC[C@H](OC(C)=O)[C@H]1OC(C)=O", "note": "[Example 14, [4-(4-Cyanobenzoyl)phenyl] 2,3,4-tri-O-acetyl-α-L-xylopyranoside]", "values": [
      {"measurement": "Activity (%): percentage inhibition of the increase in cholesterolemia compared with the control group", "setting": "[1]", "value": "−36", "unit": "%"}
    ]}
  ]
}
